The source made the active and inactive calls. The calls are words filed in the database; no cut-off is given here.
Legend:
[1] = molecular target: T1, 2-5A-dependent ribonuclease (Homo sapiens) (UniProt Q05823); test: Inhibition of his6-tagged full length human RNase L expressed in insect cells at 250 uM incubated for 30 min by FRET assay relative to control
T1 sequence (whole entry): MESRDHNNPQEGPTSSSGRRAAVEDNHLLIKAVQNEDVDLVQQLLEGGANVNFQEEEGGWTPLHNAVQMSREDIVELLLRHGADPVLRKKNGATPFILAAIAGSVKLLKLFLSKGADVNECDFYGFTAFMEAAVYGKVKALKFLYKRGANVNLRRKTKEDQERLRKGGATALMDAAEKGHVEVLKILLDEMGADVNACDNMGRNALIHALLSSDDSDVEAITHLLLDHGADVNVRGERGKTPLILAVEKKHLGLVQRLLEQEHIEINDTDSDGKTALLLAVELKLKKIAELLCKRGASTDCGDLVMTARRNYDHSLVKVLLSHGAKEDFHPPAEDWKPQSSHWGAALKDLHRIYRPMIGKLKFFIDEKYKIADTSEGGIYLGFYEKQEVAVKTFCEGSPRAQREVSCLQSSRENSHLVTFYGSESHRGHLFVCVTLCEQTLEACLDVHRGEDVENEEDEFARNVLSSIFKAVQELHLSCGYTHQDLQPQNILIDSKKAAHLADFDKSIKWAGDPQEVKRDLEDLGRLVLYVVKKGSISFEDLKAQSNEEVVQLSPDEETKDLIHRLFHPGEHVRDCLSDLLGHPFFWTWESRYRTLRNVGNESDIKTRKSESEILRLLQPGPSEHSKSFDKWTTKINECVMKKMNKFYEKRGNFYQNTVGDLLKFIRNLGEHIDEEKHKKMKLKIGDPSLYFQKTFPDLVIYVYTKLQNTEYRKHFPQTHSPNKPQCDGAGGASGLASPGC

[2] = molecular target: T2, 2-5A-dependent ribonuclease (Homo sapiens, UniProt Q05823); test: Inhibition of his6-tagged full length human RNase L expressed in insect cells incubated for 30 min by FRET assay
T2 sequence (Q05823 whole entry): T1 sequence (whole entry)

[3] = molecular target: T1, 2-5A-dependent ribonuclease (Homo sapiens); test: Inhibition of his6-tagged full length human RNase L expressed in insect cells at 130 uM incubated for 30 min by FRET assay relative to control
[4] = molecular target: T1, 2-5A-dependent ribonuclease (Homo sapiens); test: Inhibition of his6-tagged full length human RNase L expressed in insect cells at 250 uM incubated for 30 mins in presence of 2-5A and ATP by gel based RNA cleavage assay relative to control
[5] = molecular target: T1, 2-5A-dependent ribonuclease (Homo sapiens); test: Inhibition of his6-tagged full length human RNase L expressed in insect cells incubated for 30 mins in presence of 2-5A and ATP by gel based RNA cleavage assay; settings: dose 250.0 µM
[6] = molecular target: T1, 2-5A-dependent ribonuclease (Homo sapiens); test: Binding affinity to his6-tagged full length human RNase L expressed in insect cells by biolayer interferometry analysis
[7] = molecular target: T1, 2-5A-dependent ribonuclease (Homo sapiens); test: Potency index, ratio of sunitinib IC50 to test compound IC50 for inhibition of his6-tagged full length human RNase L expressed in insect cells incubated for 30 min by FRET assay
[8] = molecular target: T1, 2-5A-dependent ribonuclease (Homo sapiens); test: Inhibition of RNase L in human HeLa cells assessed as ribosomal RNA degradation at 2 uM incubated for 4 hrs by NanoDrop spectrophotometry analysis; assay type: cell-based
[9] = molecular target: T1, 2-5A-dependent ribonuclease (Homo sapiens); test: Inhibition of RNase L in human HeLa cells assessed as ribosomal RNA degradation at 10 uM incubated for 4 hrs by NanoDrop spectrophotometry analysis relative to control; assay type: cell-based

Compound	inhibition [1] [%]	also measured
CCOC(=O)C1=C(Nc2cccc(F)c2)S/C(=C/c2[nH]c(C)c(C(=O)NCCN(CC)CC)c2C)C1=O	76	
CCN(CC)CCNC(=O)c1c(C)[nH]c(/C=C2/OC(Nc3ccccc3)=C(C(=O)NC)C2=O)c1C	74	
CCOC(=O)C1=C(Nc2cccc([N+](=O)[O-])c2)S/C(=C/c2[nH]c(C)c(C(=O)NCCN(CC)CC)c2C)C1=O	76	
CCN(CC)CCNC(=O)c1c(C)[nH]c(/C=C2/OC(Nc3cccc(F)c3)=C(C(=O)NCCNC(=O)OC(C)(C)C)C2=O)c1C	84	
CCOC(=O)C1=C(Nc2ccc(C(F)(F)F)cc2)S/C(=C/c2[nH]c(C)c(C(=O)NCCN(CC)CC)c2C)C1=O	90	
CCN(CC)CCNC(=O)c1c(C)[nH]c(/C=C2/SC(Nc3ccccc3)=C(C(=O)NCCN)C2=O)c1C	101	IC50 [2]: 28 µM
CCN(CC)CCNC(=O)c1c(C)[nH]c(/C=C2/OC(Nc3cccc(F)c3)=C(C(=O)NCCN)C2=O)c1C	97	IC50 [2]: 41.9 µM
CCOC(=O)C1=C(Nc2ccccc2Br)S/C(=C/c2[nH]c(C)c(C(=O)NCCN(CC)CC)c2C)C1=O	85	
CCN(CC)CCNC(=O)c1c(C)[nH]c(/C=C2/SC(Nc3cccc(OC)c3)=C(C(=O)NCCNC(=O)OC(C)(C)C)C2=O)c1C		inhibition [3]: 49%
CCN(CC)CCNC(=O)c1c(C)[nH]c(/C=C2/SC(Nc3ccccc3)=C(C(=O)NCCNC(=O)OC(C)(C)C)C2=O)c1C	75	
CCOC(=O)C1=C(Nc2ccc([N+](=O)[O-])cc2)S/C(=C/c2[nH]c(C)c(C(=O)NCCN(CC)CC)c2C)C1=O	67	
CCN(CC)CCNC(=O)c1c(C)[nH]c(/C=C2/SC(Nc3ccccc3)=C(C(=O)NC)C2=O)c1C	67	
CCN(CC)CCNC(=O)c1c(C)[nH]c(/C=C2\C(=O)Nc3ccc(F)cc32)c1C	83	
CCN(CC)CCNC(=O)c1c(C)[nH]c(/C=C2/SC(Nc3cccc(OC)c3)=C(C(=O)NC)C2=O)c1C	99	
CCN(CC)CCNC(=O)c1c(C)[nH]c(/C=C2/SC(Nc3cccc(Cl)c3)=C(C(=O)NCCNC(=O)OC(C)(C)C)C2=O)c1C	96	
CCN(CC)CCNC(=O)c1c(C)[nH]c(/C=C2/SC(Nc3cccc(F)c3)=C(C(=O)NC)C2=O)c1C	58	
CCN(CC)CCNC(=O)c1c(C)[nH]c(/C=C2/SC(Nc3cccc(C(F)(F)F)c3)=C(C(=O)NC)C2=O)c1C		inhibition [3]: 97%
CCN(CC)CCNC(=O)c1c(C)[nH]c(/C=C2/SC(Nc3cccc([N+](=O)[O-])c3)=C(C(=O)NC)C2=O)c1C		inhibition [3]: 60%

Compound	inhibition [1] [%]	also measured
CCN(CC)CCNC(=O)c1c(C)[nH]c(/C=C2/OC(Nc3ccccc3)=C(C(=O)NCCNC(=O)OC(C)(C)C)C2=O)c1C	79	
CCN(CC)CCNC(=O)c1c(C)[nH]c(/C=C2/SC(Nc3cccc(F)c3)=C(C(=O)NCc3ccccc3)C2=O)c1C	99	
CCOC(=O)C1=C(Nc2cccc(OC)c2)S/C(=C/c2[nH]c(C)c(C(=O)NCCN(CC)CC)c2C)C1=O	78	
CCN(CC)CCNC(=O)c1c(C)[nH]c(/C=C2/OC(Nc3ccccc3)=C(C(=O)NCCN)C2=O)c1C	93	
CCN(CC)CCNC(=O)c1c(C)[nH]c(/C=C2/SC(Nc3cccc(Cl)c3)=C(C(=O)NCCN)C2=O)c1C	101	IC50 [2]: 12 µM; inhibition [4]: 100%; inhibition [5]: Dose-Dependent Effect; Activity [6]: Active
CCN(CC)CCNC(=O)c1c(C)[nH]c(/C=C2/SC(Nc3cccc(OC)c3)=C(C(=O)NCCN)C2=O)c1C	101	IC50 [2]: 13 µM; Ratio IC50 [7]: 30; inhibition [4]: 100%; inhibition [5]: Dose-Dependent Effect; Activity [6]: Active
CCOC(=O)C1=C(Nc2ccc(C)cc2)S/C(=C/c2[nH]c(C)c(C(=O)NCCN(CC)CC)c2C)C1=O	83	
CCOC(=O)C1=C(Nc2ccc(CC)cc2)S/C(=C/c2[nH]c(C)c(C(=O)NCCN(CC)CC)c2C)C1=O	83	
CCN(CC)CCNC(=O)c1c(C)[nH]c(/C=C2/SC(Nc3cccc(F)c3)=C(C(=O)NCCNC(=O)OC(C)(C)C)C2=O)c1C	100	
CCOC(=O)C1=C(Nc2ccc(F)cc2)S/C(=C/c2[nH]c(C)c(C(=O)NCCN(CC)CC)c2C)C1=O	80	
CCOC(=O)C1=C(Nc2ccc(Br)cc2)S/C(=C/c2[nH]c(C)c(C(=O)NCCN(CC)CC)c2C)C1=O	90	
CCOC(=O)C1=C(Nc2ccc(OC)cc2)S/C(=C/c2[nH]c(C)c(C(=O)NCCN(CC)CC)c2C)C1=O	70	
CCOC(=O)C1=C(Nc2ccccc2)S/C(=C/c2[nH]c(C)c(C(=O)NCCN(CC)CC)c2C)C1=O	78	
CCOC(=O)C1=C(Nc2ccc(OC)c(OC)c2)S/C(=C/c2[nH]c(C)c(C(=O)NCCN(CC)CC)c2C)C1=O	79	
CCN(CC)CCNC(=O)c1c(C)[nH]c(/C=C2/SC(Nc3ccc(F)cc3)=C(C(=O)NC)C2=O)c1C	< 5	
CCN(CC)CCNC(=O)c1c(C)[nH]c(/C=C2/SC(Nc3cccc(Cl)c3)=C(C(=O)NC)C2=O)c1C		inhibition [3]: 88%
CCN(CC)CCNC(=O)c1c(C)[nH]c(/C=C2/SC(Nc3cccc(F)c3)=C(C(=O)NCCN)C2=O)c1C	102	IC50 [2]: 16 µM; inhibition [4]: 100%; inhibition [5]: Dose-Dependent Effect; Activity [6]: Active; inhibition [8]: Active; inhibition [9]: 100%
